Test results: patent publication US7799821B2, “Therapeutic compounds” (Allergan, Inc., priority 2004, dated 2010)

Target: T1, hEP3A/Gqi5 (Homo sapiens, UniProt P43115)
T1 construct: expressed in transfected cells; host or cells: HEK-293(EBNA)
T1 sequence (P43115 1-390): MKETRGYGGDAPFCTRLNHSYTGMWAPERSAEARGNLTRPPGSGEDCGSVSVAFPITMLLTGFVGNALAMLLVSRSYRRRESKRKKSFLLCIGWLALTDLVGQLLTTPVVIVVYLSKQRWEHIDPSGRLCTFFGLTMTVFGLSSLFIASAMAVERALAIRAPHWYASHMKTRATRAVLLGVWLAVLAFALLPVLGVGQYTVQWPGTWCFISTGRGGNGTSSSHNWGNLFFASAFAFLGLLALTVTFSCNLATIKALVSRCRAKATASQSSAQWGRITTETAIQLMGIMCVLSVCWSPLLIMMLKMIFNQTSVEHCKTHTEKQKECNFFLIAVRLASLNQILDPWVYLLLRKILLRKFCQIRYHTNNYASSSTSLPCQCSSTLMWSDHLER
Experiment: FLIPR calcium signal, hEP3A
Assay type: cell-based
Details: Table 3, third part; read-out: Ca2+ Signal-EC50 (nM) EP3
Outline: (§1)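 HEK-293(EBNA) cells stably expressing the recombinant human receptor were loaded with 2 μM Fluo-4 AM for 45 min and read on FLIPR at 37° C in HBSS-HEPES pH 7.4. Peak fluorescence rise was expressed relative to buffer and standard agonist controls (BW245C, PGE2 or U-46619 by receptor); compounds were run 10^−5 to 10^−11 M in duplicate, n≧3.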

| EC50 | SMILES |
| --- | --- |
| 10000 nM | CCCCCC(C)c1ccc([C@@H]2[C@@H](C/C=C\CCCC(=O)O)[C@H](C#N)C[C@H]2C)cc1 (stereo partly drawn) |

Same assay, conditions: read-out: Other Receptors EC50 hEP3A

| SMILES | EC50 |
| --- | --- |
| CC(C)(C)c1ccc(N2C(=O)CC[C@@H]2CCCCCCC(=O)O)cc1 | 19500 nM |
| CC(C)(C)c1ccc(N2C(=O)CC[C@@H]2COCc2ccc(C(=O)O)s2)cc1 | 19200 nM |
| CCCCCC(O)c1ccc(N2C(=O)CC[C@@H]2COCc2ccc(C(=O)O)s2)cc1 (single isomer, unassigned) [drawing 176] | 153 nM |
| CCCCCC(O)c1ccc(N2C(=O)CC[C@@H]2COCc2ccc(C(=O)O)s2)cc1 (single isomer, unassigned) [drawing 148] | 153 nM |

Results, then the molecule that gave them:

| EC50 | SMILES |
| --- | --- |
| 7 nM | CCCCCCC(O)c1ccc(N2C(=O)CC[C@@H]2CCCc2ccc(C(=O)O)s2)cc1 (single isomer, unassigned) [drawing 183] |
| 71 nM | CCCCCC(O)c1ccc(N2C(=O)CC[C@@H]2CCCc2ccc(C(=O)O)s2)cc1 (single isomer, unassigned) [drawing 180] |
| 33 nM | CCCCCCC(O)c1ccc(N2C(=O)CC[C@@H]2CCCc2ccc(C(=O)O)s2)cc1 (single isomer, unassigned) [drawing 184] |
| 12 nM | CCCCCC(O)c1ccc(N2C(=O)CC[C@@H]2CCCc2ccc(C(=O)O)s2)cc1 (single isomer, unassigned) [drawing 178] |

Target: T2, EP4 receptors (Homo sapiens, UniProt P35408)
T2 construct: expressed in transfected cells; host or cells: HEK-293
Experiment: Radioligand binding ([3H]PGE2), EP4
Details: Table 3, third part; read-out: BINDING-Ki (nM) EP4
Outline: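 Membranes from HEK-293 cells stably expressing the human receptor, resuspended at 1 mg/ml protein in TME buffer pH 7.4. Competition against 5 nM [3H]PGE2 for 60 min at 25 °C, ended by filtration on GF/B filters; non-specific binding defined with 10^−5 M unlabeled PGE2.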

T2 sequence (P35408 whole entry): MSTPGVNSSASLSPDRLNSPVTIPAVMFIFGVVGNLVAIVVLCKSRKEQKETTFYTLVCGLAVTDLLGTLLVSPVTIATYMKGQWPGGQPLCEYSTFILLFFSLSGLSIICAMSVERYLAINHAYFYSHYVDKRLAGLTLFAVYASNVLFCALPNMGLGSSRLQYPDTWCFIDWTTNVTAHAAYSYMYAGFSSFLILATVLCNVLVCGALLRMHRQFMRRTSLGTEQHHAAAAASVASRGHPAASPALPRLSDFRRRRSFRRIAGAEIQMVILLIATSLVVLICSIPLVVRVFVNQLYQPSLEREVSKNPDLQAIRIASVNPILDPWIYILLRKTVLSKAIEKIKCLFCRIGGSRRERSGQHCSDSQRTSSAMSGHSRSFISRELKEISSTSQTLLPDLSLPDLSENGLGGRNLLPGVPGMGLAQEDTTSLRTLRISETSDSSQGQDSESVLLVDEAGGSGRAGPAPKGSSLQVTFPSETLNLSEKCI

| Ki | SMILES |
| --- | --- |
| > 10000 nM | CCCCCC(C)c1ccc([C@@H]2[C@@H](C/C=C\CCCC(=O)O)[C@H](C#N)C[C@H]2C)cc1 (stereo partly drawn) |

Same assay, conditions: unit inferred; read-out: EP4 data KI

| SMILES | Ki |
| --- | --- |
| CC(C)(C)c1ccc(N2C(=O)CC[C@@H]2CCCCCCC(=O)O)cc1 | > 10000 nM |
| CC(C)(C)c1ccc(N2C(=O)CC[C@@H]2COCc2ccc(C(=O)O)s2)cc1 | > 10000 nM |
| CCCCCC(O)c1ccc(N2C(=O)CC[C@@H]2COCc2ccc(C(=O)O)s2)cc1 (single isomer, unassigned) [drawing 176] | > 10000 nM |
| CCCCCC(O)c1ccc(N2C(=O)CC[C@@H]2COCc2ccc(C(=O)O)s2)cc1 (single isomer, unassigned) [drawing 148] | > 10000 nM |

The remaining lines, values ahead:

| Ki | SMILES |
| --- | --- |
| 3840 nM | CCCCCC(O)c1ccc(N2C(=O)CC[C@@H]2CCCc2ccc(C(=O)O)s2)cc1 (single isomer, unassigned) [drawing 180] |
| > 10000 nM | CCCCCC(O)c1ccc(N2C(=O)CC[C@@H]2CCCc2ccc(C(=O)O)s2)cc1 (single isomer, unassigned) [drawing 178] |

Target: T3, hEP2/Gqs5 (Homo sapiens, UniProt P43116)
T3 construct: expressed in transfected cells; host or cells: HEK-293(EBNA)
Experiment: FLIPR calcium signal, hEP2
Assay type: cell-based
Details: Table 3, third part; value outside parentheses; read-out: Ca2+ Signal-EC50 (nM) EP2
Outline: as §1

T3 sequence (P43116 whole entry): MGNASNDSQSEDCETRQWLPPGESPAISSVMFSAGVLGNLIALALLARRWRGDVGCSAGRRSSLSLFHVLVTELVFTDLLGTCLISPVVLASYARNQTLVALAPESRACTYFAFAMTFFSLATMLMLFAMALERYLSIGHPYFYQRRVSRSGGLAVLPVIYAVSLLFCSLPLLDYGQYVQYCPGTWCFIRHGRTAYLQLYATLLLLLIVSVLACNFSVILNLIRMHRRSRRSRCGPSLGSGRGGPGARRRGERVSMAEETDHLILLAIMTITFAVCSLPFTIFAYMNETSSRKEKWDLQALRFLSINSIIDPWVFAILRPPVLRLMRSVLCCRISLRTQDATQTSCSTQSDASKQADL

| EC50 | SMILES |
| --- | --- |
| 34 nM | CCCCCC(C)c1ccc([C@@H]2[C@@H](C/C=C\CCCC(=O)O)[C@H](C#N)C[C@H]2C)cc1 (stereo partly drawn) |

Same assay, conditions: unit inferred; other columns of the table in nM; read-out: EP2 data flipr EC50

| SMILES | EC50 |
| --- | --- |
| CC(C)(C)c1ccc(N2C(=O)CC[C@@H]2CCCCCCC(=O)O)cc1 | 4120 nM |
| CC(C)(C)c1ccc(N2C(=O)CC[C@@H]2COCc2ccc(C(=O)O)s2)cc1 | 1340 nM |
| CCCCCC(O)c1ccc(N2C(=O)CC[C@@H]2COCc2ccc(C(=O)O)s2)cc1 (single isomer, unassigned) [drawing 176] | 62 nM |
| CCCCCC(O)c1ccc(N2C(=O)CC[C@@H]2COCc2ccc(C(=O)O)s2)cc1 (single isomer, unassigned) [drawing 148] | 62 nM |

Next, values leading:

| EC50 | SMILES |
| --- | --- |
| 16 nM | CCCCCCC(O)c1ccc(N2C(=O)CC[C@@H]2CCCc2ccc(C(=O)O)s2)cc1 (single isomer, unassigned) [drawing 183] |
| 134 nM | CCCCCC(O)c1ccc(N2C(=O)CC[C@@H]2CCCc2ccc(C(=O)O)s2)cc1 (single isomer, unassigned) [drawing 180] |
| 5 nM | CCCCCCC(O)c1ccc(N2C(=O)CC[C@@H]2CCCc2ccc(C(=O)O)s2)cc1 (single isomer, unassigned) [drawing 184] |
| 6 nM | CCCCCC(O)c1ccc(N2C(=O)CC[C@@H]2CCCc2ccc(C(=O)O)s2)cc1 (single isomer, unassigned) [drawing 178] |

Target: T4, hDP/Gqs5 (Homo sapiens, UniProt Q13258)
T4 construct: expressed in transfected cells; host or cells: HEK-293(EBNA)
T4 sequence (Q13258 1-359): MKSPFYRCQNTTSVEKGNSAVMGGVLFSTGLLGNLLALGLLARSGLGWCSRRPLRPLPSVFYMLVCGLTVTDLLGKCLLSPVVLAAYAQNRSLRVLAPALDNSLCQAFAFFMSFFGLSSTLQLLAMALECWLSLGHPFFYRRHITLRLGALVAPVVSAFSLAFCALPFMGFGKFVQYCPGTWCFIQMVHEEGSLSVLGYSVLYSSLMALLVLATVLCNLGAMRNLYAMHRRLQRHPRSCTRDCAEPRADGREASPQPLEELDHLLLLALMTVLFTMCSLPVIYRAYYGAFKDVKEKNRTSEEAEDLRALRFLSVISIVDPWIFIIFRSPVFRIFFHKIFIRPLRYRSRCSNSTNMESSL
Experiment: FLIPR calcium signal, hDP
Assay type: cell-based
Details: read-out: Other Receptors EC50 hDP
Method: HEK-293(EBNA) cells, stably expressing one type or subtype of recombinant human prostaglandin receptors (prostaglandin receptors expressed: hDP/Gqs5; hEP1; hEP2/Gqs5; hEP3A/Gqi5; hEP4/Gqs5; hFP; hIP; hTP), were cultured in 100 mm culture dishes in high-glucose DMEM medium containing 10% fetal bovine serum, 2 mM 1-glutamine, 250 μg/ml geneticin (G418) and 200 μg/ml hygromycin B as selection markers, and 100 units/ml penicillin G, 100 μg/ml streptomycin and 0.25 μg/ml amphotericin B. • (b) Calcium Signal Studies on the FLIPR™
Cells were seeded at a density of 5×10^4 cells per well in Biocoat® Poly-D-lysine-coated black-wall, clear-bottom 96-well plates (Becton-Dickinson) and allowed to attach overnight in an incubator at 37° C. Cells were then washed two times with HBSS-HEPES buffer (Hanks Balanced Salt Solution without bicarbonate and phenol red, 20 mM HEPES, pH 7.4) using a Denley Cellwash plate washer (Labsystems). After 45 minutes of dye-loading in the dark, using the calcium-sensitive dye Fluo-4 AM at a final concentration of 2 μM, plates were washed four times with HBSS-HEPES buffer to remove excess dye leaving 100 μl in each well. Plates were re-equilibrated to 37° C. for a few minutes.
Cells were excited with an Argon laser at 488 nm, and emission was measured through a 510-570 nm bandwidth emission filter (FLIPR™, Molecular Devices, Sunnyvale, Calif.). Drug solution was added in a 50 μl volume to each well to give the desired final concentration. The peak increase in fluorescence intensity was recorded for each well. On each plate, four wells each served as negative (HBSS-HEPES buffer) and positive controls (standard agonists: BW245C (hDP); PGE2 (hEP1; hEP2/Gqs5; hEP3A/Gqi5; hEP4/Gqs5); PGF2α (hFP); carbacyclin (hIP); U-46619 (hTP), depending on receptor). The peak fluorescence change in each drug-containing well was then expressed relative to the controls.
Compounds were tested in a high-throughput (HTS) or concentration-response (CoRe) format. In the HTS format, forty-four compounds per plate were examined in duplicates at a concentration of 10^−5 M. To generate concentration-response curves, four compounds per plate were tested in duplicates in a concentration range between 10^−5 and 10^−11 M. The duplicate values were averaged. In either, HTS or CoRe format each compound was tested on at least 3 separate plates using cells from different passages to give an n≧3.

| SMILES | EC50 |
| --- | --- |
| CC(C)(C)c1ccc(N2C(=O)CC[C@@H]2CCCCCCC(=O)O)cc1 | > 10000 nM |
| CC(C)(C)c1ccc(N2C(=O)CC[C@@H]2COCc2ccc(C(=O)O)s2)cc1 | 2320 nM |
| CCCCCC(O)c1ccc(N2C(=O)CC[C@@H]2COCc2ccc(C(=O)O)s2)cc1 (single isomer, unassigned) [drawing 176] | 7750 nM |
| CCCCCC(O)c1ccc(N2C(=O)CC[C@@H]2COCc2ccc(C(=O)O)s2)cc1 (single isomer, unassigned) [drawing 148] | 7750 nM |

Results, then the molecule that gave them:

| EC50 | SMILES |
| --- | --- |
| 37 nM | CCCCCCC(O)c1ccc(N2C(=O)CC[C@@H]2CCCc2ccc(C(=O)O)s2)cc1 (single isomer, unassigned) [drawing 183] |
| 6830 nM | CCCCCC(O)c1ccc(N2C(=O)CC[C@@H]2CCCc2ccc(C(=O)O)s2)cc1 (single isomer, unassigned) [drawing 180] |
| 106 nM | CCCCCCC(O)c1ccc(N2C(=O)CC[C@@H]2CCCc2ccc(C(=O)O)s2)cc1 (single isomer, unassigned) [drawing 184] |
| 812 nM | CCCCCC(O)c1ccc(N2C(=O)CC[C@@H]2CCCc2ccc(C(=O)O)s2)cc1 (single isomer, unassigned) [drawing 178] |
